System: Vγ9Vδ2 T cells
Assay: Production of IFN-γ, TNF and GM-CSF, ELISA of culture supernatants
Assay type: cell-based, human
Method: Supernatants of the culture solutions having various conditions under which Vγ9Vδ2 T cells were cultured were assayed by ELISA so that the production of cytokines (e.g., IFN-γ, TNF, GM-CSF) was measured.
The Vγ9Vδ2 T cells were restimulated both in the presence of IL-18 and in the absence of IL-18. After 24 hours, a supernatant of the culture solution containing IL-18 and a supernatant of the culture solution devoid of IL-18 were compared. In this case also, the result obtained was similar to the above.

[1] = purified activated Vγ9Vδ2 T cells restimulated, 24 hours

IL-18: interleukin 18, cytokine, IFN-γ inducing factor, obtained from GlaxoSmithKline K.K.
production of GM-CSF, supernatant supplemented with IL-18 versus without (data not shown): about 10 times | production of IFN-γ, presence versus absence of IL-18 [1]: far larger production | production of TNFα, presence versus absence of IL-18 [1]: far larger production
